In ChEMBL document CHEMBL5723035, “Affinity Biochemical Literature for EUbOPEN Chemogenomic Library” (2024):
Each block holds one molecule with its values, some of them ahead of it.

How the values were obtained:
[1] = molecular target: T1, Nucleotide triphosphate diphosphatase NUDT15 (Homo sapiens, UniProt Q9NV35); test: Affinity Biochemical interaction: (enzyme-coupled MG (Malachite Green) assay with 6-thio-dGTP) EUB0002330a NUDT15; assay type: functional; parameters: mode of action Inhibitor, recommended concentration 1 uM
T1 sequence (Q9NV35 whole entry): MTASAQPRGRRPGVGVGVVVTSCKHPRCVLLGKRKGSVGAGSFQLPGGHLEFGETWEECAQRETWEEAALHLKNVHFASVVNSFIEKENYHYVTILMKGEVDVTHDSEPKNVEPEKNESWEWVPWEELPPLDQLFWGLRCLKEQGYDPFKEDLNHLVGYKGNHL

[2] = molecular target: T1, Nucleotide triphosphate diphosphatase NUDT15; test: Affinity Biochemical interaction: (enzyme-coupled MG (Malachite Green) assay with […]) EUB0002330a NUDT15; assay type: functional; parameters: mode of action Inhibitor, recommended concentration 1 uM
[3] = molecular target: Alpha-ketoglutarate-dependent dioxygenase alkB homolog 3 (Homo sapiens, UniProt Q96Q83)
[4] = molecular target: sn-1-specific diacylglycerol lipase ABHD11 (Homo sapiens, UniProt Q8NFV4); test: Affinity Biochemical interaction: (fluorescence-based biochemical gel-based Activity-Based Protein Profiling (ABPP)) EUB0002643a ABHD11; assay type: functional; parameters: mode of action Inhibitor, recommended concentration 1 uM
[5] = molecular target: Histone acetyltransferase p300 (Homo sapiens, UniProt Q09472); test: Affinity Biochemical interaction: (inhibition of acetyl-transferase reaction) EUB0002628aAD EP300; assay type: functional; parameters: mode of action Inhibitor, recommended concentration 1 uM
[6] = molecular target: T2, cAMP and cAMP-inhibited cGMP 3',5'-cyclic phosphodiesterase 10A (Homo sapiens, UniProt Q9Y233); test: Affinity Biochemical interaction: (inhibition of enzyme activity in cleaving radiolabelled substrate [3H]cAMP) EUB0002682aCl PDE10A; assay type: functional; parameters: mode of action Inhibitor, recommended concentration 1 uM
T2 sequence (Q9Y233 whole entry): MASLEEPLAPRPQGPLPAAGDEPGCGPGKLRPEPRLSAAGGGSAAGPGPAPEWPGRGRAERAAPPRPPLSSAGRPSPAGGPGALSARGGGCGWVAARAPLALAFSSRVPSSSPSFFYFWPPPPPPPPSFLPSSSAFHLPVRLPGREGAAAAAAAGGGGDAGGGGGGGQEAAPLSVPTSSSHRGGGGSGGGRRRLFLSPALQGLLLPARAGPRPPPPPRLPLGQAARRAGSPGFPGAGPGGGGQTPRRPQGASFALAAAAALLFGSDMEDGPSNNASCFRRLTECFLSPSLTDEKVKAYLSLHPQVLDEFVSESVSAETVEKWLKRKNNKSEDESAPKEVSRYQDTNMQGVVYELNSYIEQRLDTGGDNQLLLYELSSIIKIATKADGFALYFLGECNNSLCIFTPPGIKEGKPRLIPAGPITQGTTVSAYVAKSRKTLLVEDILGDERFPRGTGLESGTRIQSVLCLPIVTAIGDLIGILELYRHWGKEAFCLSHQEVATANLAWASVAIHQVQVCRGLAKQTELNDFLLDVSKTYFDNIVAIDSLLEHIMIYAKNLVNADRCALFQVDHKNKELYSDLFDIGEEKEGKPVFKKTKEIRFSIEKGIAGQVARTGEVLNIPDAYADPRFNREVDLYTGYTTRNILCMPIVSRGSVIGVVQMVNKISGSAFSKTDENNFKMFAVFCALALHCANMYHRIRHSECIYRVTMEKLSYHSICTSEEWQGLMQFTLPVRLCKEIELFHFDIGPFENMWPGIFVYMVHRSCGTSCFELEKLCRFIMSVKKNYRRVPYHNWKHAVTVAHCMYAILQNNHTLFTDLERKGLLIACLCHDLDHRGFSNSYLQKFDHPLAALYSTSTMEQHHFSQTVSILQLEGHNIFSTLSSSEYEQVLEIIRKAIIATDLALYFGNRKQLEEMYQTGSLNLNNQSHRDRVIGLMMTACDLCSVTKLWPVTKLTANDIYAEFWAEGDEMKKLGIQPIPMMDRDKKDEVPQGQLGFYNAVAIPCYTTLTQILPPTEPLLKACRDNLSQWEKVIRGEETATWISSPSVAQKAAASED

[7] = molecular target: Arginase-2, mitochondrial (Homo sapiens, UniProt P78540); test: Affinity Biochemical interaction: (competitive binding assay with radiolabelled [guanido-14C][…] as substrate) EUB0002484aCl ARG2; parameters: mode of action Inhibitor, recommended concentration 1 uM
Procathepsin L = Procathepsin L (Homo sapiens, UniProt P07711); test: Affinity Biochemical interaction: (enzymatic assay (fluorogenic substrate cleavage)) EUB0002529a CTSL; assay type: functional; parameters: mode of action Inhibitor, recommended concentration 1 uM
[8] = molecular target: 3',5'-cyclic-AMP phosphodiesterase 4A (Homo sapiens, UniProt P27815); test: Affinity Biochemical interaction: (radioligand binding assay, inhibition of [3H]cAMP or [3H]cGMP cleavage) EUB0002534a PDE4A; parameters: mode of action Inhibitor, recommended concentration 1 uM
[9] = molecular target: 3',5'-cyclic-AMP phosphodiesterase 4C (Homo sapiens, UniProt Q08493); test: Affinity Biochemical interaction: (radioligand binding assay, inhibition of [3H]cAMP or [3H]cGMP cleavage) EUB0002534a PDE4C; parameters: mode of action Inhibitor, recommended concentration 1 uM
[10] = molecular target: T3, 3',5'-cyclic-AMP phosphodiesterase 4D (Homo sapiens, UniProt Q08499); test: Affinity Biochemical interaction: (radioligand binding assay, inhibition of [3H]cAMP or [3H]cGMP cleavage) EUB0002534a PDE4D; parameters: mode of action Inhibitor, recommended concentration 1 uM
T3 sequence (Q08499 whole entry): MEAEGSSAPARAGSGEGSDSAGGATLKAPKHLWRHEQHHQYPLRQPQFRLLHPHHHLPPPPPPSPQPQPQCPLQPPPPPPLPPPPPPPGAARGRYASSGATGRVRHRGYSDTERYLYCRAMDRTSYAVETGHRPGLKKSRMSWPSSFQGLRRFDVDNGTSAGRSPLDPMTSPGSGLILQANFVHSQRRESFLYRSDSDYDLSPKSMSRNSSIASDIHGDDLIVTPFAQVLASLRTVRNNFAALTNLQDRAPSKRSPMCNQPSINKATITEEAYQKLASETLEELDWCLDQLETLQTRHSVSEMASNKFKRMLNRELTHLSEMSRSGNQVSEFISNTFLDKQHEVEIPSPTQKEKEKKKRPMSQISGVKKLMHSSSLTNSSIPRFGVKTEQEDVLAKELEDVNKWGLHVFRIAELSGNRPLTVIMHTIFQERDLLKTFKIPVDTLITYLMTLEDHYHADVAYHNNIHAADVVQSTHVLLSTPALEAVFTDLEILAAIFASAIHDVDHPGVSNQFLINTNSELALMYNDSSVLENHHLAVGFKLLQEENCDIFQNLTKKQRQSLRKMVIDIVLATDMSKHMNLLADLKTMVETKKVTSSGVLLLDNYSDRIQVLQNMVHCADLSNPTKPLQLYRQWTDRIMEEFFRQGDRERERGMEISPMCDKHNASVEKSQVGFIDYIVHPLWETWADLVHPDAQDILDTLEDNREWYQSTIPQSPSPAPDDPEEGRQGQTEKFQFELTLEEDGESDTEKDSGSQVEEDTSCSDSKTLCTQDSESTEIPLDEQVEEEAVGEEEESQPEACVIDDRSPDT

[11] = molecular target: 3',5'-cyclic-AMP phosphodiesterase 4B (Homo sapiens, UniProt Q07343); test: Affinity Biochemical interaction: (radioligand binding assay, inhibition of [3H]cAMP or [3H]cGMP cleavage) EUB0002534a PDE4B; parameters: mode of action Inhibitor, recommended concentration 1 uM
[12] = molecular target: T4, Lysine-specific demethylase 4A (Homo sapiens, UniProt O75164); test: Affinity Biochemical interaction: (Biolayer interferometry) EUB0002543a KDM4A; parameters: mode of action Inhibitor, recommended concentration 1 uM
T4 sequence (O75164 whole entry): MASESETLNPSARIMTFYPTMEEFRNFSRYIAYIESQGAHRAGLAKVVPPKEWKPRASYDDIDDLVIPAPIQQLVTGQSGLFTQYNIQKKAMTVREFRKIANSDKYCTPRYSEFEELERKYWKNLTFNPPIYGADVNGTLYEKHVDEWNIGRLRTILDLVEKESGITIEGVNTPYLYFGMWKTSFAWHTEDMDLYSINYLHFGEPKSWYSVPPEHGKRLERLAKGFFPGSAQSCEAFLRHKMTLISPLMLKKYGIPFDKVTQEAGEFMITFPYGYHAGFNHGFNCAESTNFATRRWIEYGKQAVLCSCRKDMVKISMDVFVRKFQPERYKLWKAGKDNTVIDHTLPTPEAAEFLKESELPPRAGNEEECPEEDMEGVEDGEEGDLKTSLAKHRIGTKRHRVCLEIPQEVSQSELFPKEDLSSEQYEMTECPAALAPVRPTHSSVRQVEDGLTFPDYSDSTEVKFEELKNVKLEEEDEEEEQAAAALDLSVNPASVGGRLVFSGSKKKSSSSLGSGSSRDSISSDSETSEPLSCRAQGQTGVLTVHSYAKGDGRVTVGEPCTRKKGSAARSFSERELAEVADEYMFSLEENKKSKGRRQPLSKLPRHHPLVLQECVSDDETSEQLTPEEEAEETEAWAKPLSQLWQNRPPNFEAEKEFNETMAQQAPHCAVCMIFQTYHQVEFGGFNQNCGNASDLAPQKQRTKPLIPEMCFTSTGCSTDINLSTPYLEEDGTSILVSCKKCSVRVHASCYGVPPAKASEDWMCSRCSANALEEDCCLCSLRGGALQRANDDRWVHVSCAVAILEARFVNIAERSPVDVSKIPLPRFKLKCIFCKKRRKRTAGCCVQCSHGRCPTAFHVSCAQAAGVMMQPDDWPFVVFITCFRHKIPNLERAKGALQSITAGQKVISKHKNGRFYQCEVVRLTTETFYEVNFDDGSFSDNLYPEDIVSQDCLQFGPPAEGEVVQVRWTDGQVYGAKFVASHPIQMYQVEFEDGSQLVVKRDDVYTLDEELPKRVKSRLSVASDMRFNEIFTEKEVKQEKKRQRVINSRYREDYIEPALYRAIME

[13] = molecular target: T4, Lysine-specific demethylase 4A; test: Affinity Biochemical interaction: (AlphaScreen) EUB0002543a KDM4A; assay type: functional; parameters: mode of action Inhibitor, recommended concentration 1 uM
[14] = molecular target: Lysine-specific demethylase 4B (Homo sapiens, UniProt O94953); test: Affinity Biochemical interaction: (AlphaScreen) EUB0002543a KDM4B; assay type: functional; parameters: mode of action Inhibitor, recommended concentration 1 uM
[15] = molecular target: Lysine-specific demethylase 4C (Homo sapiens, UniProt Q9H3R0); test: Affinity Biochemical interaction: (AlphaScreen) EUB0002543a KDM4C; assay type: functional; parameters: mode of action Inhibitor, recommended concentration 1 uM
[16] = molecular target: T5, Histone-lysine N-methyltransferase SETD7 (Homo sapiens, UniProt Q8WTS6); test: Affinity Biochemical interaction: (inhibition of histone H3(1-21) methylation) EUB0002319a SETD7; assay type: functional; parameters: mode of action Inhibitor, recommended concentration 1 uM
T5 sequence (Q8WTS6 whole entry): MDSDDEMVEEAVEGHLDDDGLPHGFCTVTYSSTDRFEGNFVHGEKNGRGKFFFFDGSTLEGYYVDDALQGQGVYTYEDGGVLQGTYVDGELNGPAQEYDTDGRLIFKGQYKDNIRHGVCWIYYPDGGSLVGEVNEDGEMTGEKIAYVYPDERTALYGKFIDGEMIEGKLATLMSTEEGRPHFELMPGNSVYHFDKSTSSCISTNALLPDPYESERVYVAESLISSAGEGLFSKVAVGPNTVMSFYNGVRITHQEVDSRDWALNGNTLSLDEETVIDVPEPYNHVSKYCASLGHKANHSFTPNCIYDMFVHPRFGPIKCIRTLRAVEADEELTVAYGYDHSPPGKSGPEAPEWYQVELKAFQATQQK

[17] = molecular target: T6, Protein arginine N-methyltransferase 5 (Homo sapiens, UniProt O14744); test: Affinity Biochemical interaction: (inhibition of histone H4 methylation) EUB0002319a PRMT5; assay type: functional; parameters: mode of action Inhibitor, recommended concentration 1 uM
T6 sequence (O14744 whole entry): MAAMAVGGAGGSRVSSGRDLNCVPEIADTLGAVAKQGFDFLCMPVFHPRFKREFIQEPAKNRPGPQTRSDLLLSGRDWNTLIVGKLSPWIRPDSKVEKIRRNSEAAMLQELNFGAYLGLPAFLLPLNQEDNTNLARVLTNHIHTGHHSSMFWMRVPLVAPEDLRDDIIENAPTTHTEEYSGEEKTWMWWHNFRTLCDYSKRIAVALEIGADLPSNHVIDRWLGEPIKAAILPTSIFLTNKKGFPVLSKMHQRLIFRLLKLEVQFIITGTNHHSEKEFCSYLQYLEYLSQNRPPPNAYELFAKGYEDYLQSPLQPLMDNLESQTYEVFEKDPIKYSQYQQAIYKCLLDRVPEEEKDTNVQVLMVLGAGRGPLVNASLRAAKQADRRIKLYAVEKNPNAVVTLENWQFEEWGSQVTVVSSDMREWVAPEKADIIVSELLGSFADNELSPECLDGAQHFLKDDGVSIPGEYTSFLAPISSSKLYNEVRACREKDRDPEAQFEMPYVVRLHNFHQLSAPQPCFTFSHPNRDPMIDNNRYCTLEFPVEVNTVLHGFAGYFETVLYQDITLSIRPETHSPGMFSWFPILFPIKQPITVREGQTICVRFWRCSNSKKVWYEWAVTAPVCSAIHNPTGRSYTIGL

[18] = molecular target: T5, Histone-lysine N-methyltransferase SETD7; test: Affinity Biochemical interaction: (inhibition of histone H3 methylation) EUB0002319a SETD7; assay type: functional; parameters: mode of action Inhibitor, recommended concentration 1 uM
[19] = molecular target: T6, Protein arginine N-methyltransferase 5; test: Affinity Biochemical interaction: (inhibition of histone H4 (1-21) methylation) EUB0002319a PRMT5; assay type: functional; parameters: mode of action Inhibitor, recommended concentration 1 uM
Acid ceramidase = Acid ceramidase (Homo sapiens, UniProt Q13510); test: Affinity Biochemical interaction: (inhibition of substrate hydrolysis determined through mass spectrometry) EUB0002527a ASAH1; assay type: functional; parameters: mode of action Inhibitor, recommended concentration 1 uM
[20] = molecular target: High affinity cAMP-specific and IBMX-insensitive 3',5'-cyclic phosphodiesterase 8A (Homo sapiens, UniProt O60658); test: Affinity Biochemical interaction: (inhibition of enzyme activity with [3H]cGMP or [3H]cAMP as the substrate) EUB0002477a PDE8A; assay type: functional; parameters: mode of action Inhibitor, recommended concentration 1 uM
[21] = molecular target: T2, cAMP and cAMP-inhibited cGMP 3',5'-cyclic phosphodiesterase 10A; test: Affinity Biochemical interaction: (inhibition of enzyme activity with [3H]cGMP or [3H]cAMP as the substrate) EUB0002477a PDE10A; assay type: functional; parameters: mode of action Inhibitor, recommended concentration 1 uM
[22] = molecular target: High affinity 3',5'-cyclic-AMP phosphodiesterase 7A (Homo sapiens, UniProt Q13946); test: Affinity Biochemical interaction: (inhibition of enzyme activity with [3H]cGMP or [3H]cAMP as the substrate) EUB0002477a PDE7A; assay type: functional; parameters: mode of action Inhibitor, recommended concentration 1 uM
[23] = molecular target: cGMP-dependent 3',5'-cyclic phosphodiesterase (Homo sapiens, UniProt O00408); test: Affinity Biochemical interaction: (inhibition of enzyme activity with [3H]cGMP or [3H]cAMP as the substrate) EUB0002477a PDE2A; assay type: functional; parameters: mode of action Inhibitor, recommended concentration 1 uM
Sequence of cGMP-dependent 3',5'-cyclic phosphodiesterase (O00408 whole entry): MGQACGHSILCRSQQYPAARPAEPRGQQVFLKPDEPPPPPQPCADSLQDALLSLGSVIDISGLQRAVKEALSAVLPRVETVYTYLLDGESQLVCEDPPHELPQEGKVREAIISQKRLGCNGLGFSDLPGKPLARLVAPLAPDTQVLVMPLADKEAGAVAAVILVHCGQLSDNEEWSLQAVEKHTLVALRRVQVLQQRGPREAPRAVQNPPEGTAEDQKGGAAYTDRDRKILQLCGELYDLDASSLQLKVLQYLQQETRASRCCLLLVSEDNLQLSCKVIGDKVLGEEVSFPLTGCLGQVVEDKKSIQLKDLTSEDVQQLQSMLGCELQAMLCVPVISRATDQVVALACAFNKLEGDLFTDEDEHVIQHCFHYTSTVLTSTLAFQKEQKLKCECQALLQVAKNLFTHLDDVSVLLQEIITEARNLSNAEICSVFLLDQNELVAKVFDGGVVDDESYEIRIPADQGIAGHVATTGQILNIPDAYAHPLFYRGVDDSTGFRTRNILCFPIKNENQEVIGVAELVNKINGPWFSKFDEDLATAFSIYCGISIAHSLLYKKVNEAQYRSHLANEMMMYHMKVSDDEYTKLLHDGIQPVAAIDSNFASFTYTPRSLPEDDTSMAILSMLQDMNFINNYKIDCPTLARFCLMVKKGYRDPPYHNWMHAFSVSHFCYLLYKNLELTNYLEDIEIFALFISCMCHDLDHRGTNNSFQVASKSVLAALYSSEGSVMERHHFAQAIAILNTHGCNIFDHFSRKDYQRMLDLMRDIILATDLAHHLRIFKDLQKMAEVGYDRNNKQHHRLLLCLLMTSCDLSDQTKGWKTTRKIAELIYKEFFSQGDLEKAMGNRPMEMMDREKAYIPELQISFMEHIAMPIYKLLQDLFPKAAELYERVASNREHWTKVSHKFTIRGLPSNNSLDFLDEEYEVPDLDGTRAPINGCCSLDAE

[24] = molecular target: T3, 3',5'-cyclic-AMP phosphodiesterase 4D; test: Affinity Biochemical interaction: (inhibition of enzyme activity with [3H]cGMP or [3H]cAMP as the substrate) EUB0002477a PDE4D; assay type: functional; parameters: mode of action Inhibitor, recommended concentration 1 uM
[25] = molecular target: T3, 3',5'-cyclic-AMP phosphodiesterase 4D; test: Affinity Biochemical interaction: ([…]) EUB0002544a PDE4D; assay type: cell-free; parameters: mode of action Inhibitor, recommended concentration 1 uM
[26] = molecular target: NAD-dependent protein deacetylase sirtuin-7 (Homo sapiens, UniProt Q9NRC8); test: Affinity Biochemical interaction: (inhibition of deacetylase activity, luminescence measurement using the SIRT7 assay kit) EUB0002717a SIRT7; assay type: functional; parameters: mode of action Inhibitor, recommended concentration 1 uM

SMILES: CC(=O)N[C@@H](CCCCNC(=O)CSCCNC(=O)CCNC(=O)[C@H](O)C(C)(C)COP(=O)(O)OP(=O)(O)OC[C@H]1O[C@@H](n2cnc3c(N)ncnc32)[C@H](O)[C@@H]1OP(=O)(O)O)C(N)=O
IC50 [5]: ~50 nM

SMILES: N[C@@H](CCCCB(O)O)C(=O)O
Ki [7]: 250 nM

SMILES: Nc1cc2c3c(c1)C(c1ccccc1)=N[C@@H](NC(=O)c1cccnc1)C(=O)N3CC2
IC50 [8]: 290 nM
IC50 [9]: 560 nM
IC50 [10]: 90 nM
IC50 [11]: 80 nM

SMILES: CC(C)[C@@H]1NC(=O)[C@H](Cc2ccc(O)cc2)NC(=O)[C@@H](CC(=O)O)NC(=O)S[C@@H](C(=O)O)NC(=O)[C@H]([C@H](C)O)NC(=O)[C@H](Cc2ccc(O)cc2)NC(=O)[C@H](Cc2c[nH]c3ccccc23)NC(=O)[C@H](CCCNC(=N)N)NC(=O)[C@H](Cc2c[nH]c3ccccc23)NC(=O)[C@H](C)NC(=O)[C@H](CO)NC(=O)[C@H](CCCNC(=N)N)NC(=O)[C@H]([C@H](C)O)NC(=O)[C@H](CC(N)=O)NC(=O)[C@H](Cc2ccc(O)cc2)NC1=O
Kd [12]: 29.8 nM
IC50 [13]: 42 nM
IC50 [14]: 33 nM
IC50 [15]: 39 nM

SMILES: Nc1ncnc2c1ncn2[C@@H]1O[C@H](C[C@@H](N)CC[C@H](N)C(=O)O)[C@@H](O)[C@H]1O [SINEFUNGIN]
IC50 [16]: 2380 nM
IC50 [17]: 690 nM
IC50 [18]: 9100 nM
IC50 [19]: 310 nM

SMILES: CCCCCCNC(=O)n1cc(F)c(=O)[nH]c1=O [CARMOFUR]
IC50 (Acid ceramidase): 29 nM

SMILES: C[C@H](Nc1nc2c(cnn2C2CCCC2)c(=O)[nH]1)c1ccc(Cl)cc1
IC50 [20]: 1 nM
IC50 [21]: 2.3 nM
IC50 [22]: 2.5 nM
IC50 [23]: 2.4 nM
IC50 [24]: 1.3 nM

Now from value to molecule:

IC50 [1]: 57 nM
IC50 [2]: 25 nM
SMILES: O=C(c1ccc2[nH]ccc2c1)N1CCN(S(=O)(=O)c2ccc3[nH]c(=O)oc3c2)CC1

IC50 [3]: 670 nM
SMILES: Cc1ccc2[nH]c(-n3nc(C)c(Cc4ccccc4)c3O)nc2c1

IC50 [4]: 15 nM
SMILES: CCC1CCCCN1C(=O)n1ncc(C(O)(c2ccccc2)c2ccccc2)n1 (stereo not drawn)

IC50 [6]: 2.8 nM
SMILES: Cc1ccc2c(c1)nc(/C=C/c1cccc3cccnc13)n2-c1cccc(OCCCN2CCN(C)CC2)c1

Ki (Procathepsin L): 82 nM
SMILES: Cn1nc(C(C)(C)C)cc1C(=O)NC(Cc1cccc(Cl)c1)C(=O)NCC#N (stereo not drawn)

IC50 [25]: 37 nM
SMILES: C[C@@H](Oc1ccc(CNC(=O)c2cccnc2Oc2ccc3c(c2)OCO3)c(F)c1)C(=O)O

IC50 [26]: 325 nM
SMILES: Nc1cccc(Nc2ncc(-c3ccc(Cl)cc3)o2)c1
